In ChEMBL document CHEMBL4602732, “Optimizing Pyrazolopyrimidine Inhibitors of Calcium Dependent Protein Kinase 1 for Treatment of Acute and Chronic Toxoplasmosis” (J Med Chem, 2020):
Calls of active or inactive are those of the source. The rule behind the calls is not given here.

Legend:
Aldehyde oxidase = target: T1, Aldehyde oxidase (Homo sapiens, UniProt Q06278); experiment: Drug metabolism in human liver S9 fraction assessed as aldehyde oxidase-mediated drug metabolism by measuring rate of parent compound decay at 1 uM measured after 90 mins by LC-MS/MS analysis; format: ADME, subcellular
T1 sequence (Q06278 whole entry): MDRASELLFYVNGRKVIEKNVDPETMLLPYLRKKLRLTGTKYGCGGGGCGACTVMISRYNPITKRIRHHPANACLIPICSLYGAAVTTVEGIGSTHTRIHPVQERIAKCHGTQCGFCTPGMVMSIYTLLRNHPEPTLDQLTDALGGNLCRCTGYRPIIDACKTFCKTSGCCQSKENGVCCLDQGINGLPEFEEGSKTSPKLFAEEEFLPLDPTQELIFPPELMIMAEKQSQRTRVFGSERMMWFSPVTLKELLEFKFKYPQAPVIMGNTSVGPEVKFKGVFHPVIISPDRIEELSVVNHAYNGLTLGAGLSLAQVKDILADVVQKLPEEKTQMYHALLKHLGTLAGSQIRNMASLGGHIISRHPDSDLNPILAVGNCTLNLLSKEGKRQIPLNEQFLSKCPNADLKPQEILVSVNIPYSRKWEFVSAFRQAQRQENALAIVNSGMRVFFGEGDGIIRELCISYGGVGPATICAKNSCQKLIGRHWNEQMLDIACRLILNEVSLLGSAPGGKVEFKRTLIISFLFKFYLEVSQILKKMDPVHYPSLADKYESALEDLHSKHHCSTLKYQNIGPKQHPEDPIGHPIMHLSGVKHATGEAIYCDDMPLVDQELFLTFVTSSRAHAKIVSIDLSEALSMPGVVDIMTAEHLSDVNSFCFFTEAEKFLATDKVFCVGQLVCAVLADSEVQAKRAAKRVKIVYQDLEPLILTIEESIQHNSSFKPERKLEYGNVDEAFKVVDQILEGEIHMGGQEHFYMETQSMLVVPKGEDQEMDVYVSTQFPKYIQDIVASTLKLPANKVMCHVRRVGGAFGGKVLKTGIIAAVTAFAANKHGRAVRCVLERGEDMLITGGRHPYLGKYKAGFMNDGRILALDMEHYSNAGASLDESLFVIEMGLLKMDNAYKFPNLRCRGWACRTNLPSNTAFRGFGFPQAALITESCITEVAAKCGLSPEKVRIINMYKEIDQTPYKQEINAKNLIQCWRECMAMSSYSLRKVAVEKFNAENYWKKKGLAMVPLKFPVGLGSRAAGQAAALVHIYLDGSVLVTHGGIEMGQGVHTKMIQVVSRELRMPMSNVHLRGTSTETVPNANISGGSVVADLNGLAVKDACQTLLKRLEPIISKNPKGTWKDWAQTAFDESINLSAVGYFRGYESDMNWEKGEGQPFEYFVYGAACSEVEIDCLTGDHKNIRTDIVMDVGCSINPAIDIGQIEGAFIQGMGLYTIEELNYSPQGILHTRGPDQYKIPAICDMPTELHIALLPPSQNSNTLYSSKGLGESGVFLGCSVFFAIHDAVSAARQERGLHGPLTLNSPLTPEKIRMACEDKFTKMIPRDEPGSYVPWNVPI

[1] = Toxicity in CD1 mouse assessed as adverse effect at 600 mg/kg measured for 7 days; format: organism-based; details: in vivo, 168 h
MAP4K4 = MAP4K4 (Homo sapiens, UniProt O95819); experiment: Inhibition of recombinant human GST-tagged MAP4K4 catalytic domain expressed in baculovirus expression system at 1 uM by Lanthascreen assay relative to control
Sequence of MAP4K4 (O95819 whole entry, the tested form may be a part): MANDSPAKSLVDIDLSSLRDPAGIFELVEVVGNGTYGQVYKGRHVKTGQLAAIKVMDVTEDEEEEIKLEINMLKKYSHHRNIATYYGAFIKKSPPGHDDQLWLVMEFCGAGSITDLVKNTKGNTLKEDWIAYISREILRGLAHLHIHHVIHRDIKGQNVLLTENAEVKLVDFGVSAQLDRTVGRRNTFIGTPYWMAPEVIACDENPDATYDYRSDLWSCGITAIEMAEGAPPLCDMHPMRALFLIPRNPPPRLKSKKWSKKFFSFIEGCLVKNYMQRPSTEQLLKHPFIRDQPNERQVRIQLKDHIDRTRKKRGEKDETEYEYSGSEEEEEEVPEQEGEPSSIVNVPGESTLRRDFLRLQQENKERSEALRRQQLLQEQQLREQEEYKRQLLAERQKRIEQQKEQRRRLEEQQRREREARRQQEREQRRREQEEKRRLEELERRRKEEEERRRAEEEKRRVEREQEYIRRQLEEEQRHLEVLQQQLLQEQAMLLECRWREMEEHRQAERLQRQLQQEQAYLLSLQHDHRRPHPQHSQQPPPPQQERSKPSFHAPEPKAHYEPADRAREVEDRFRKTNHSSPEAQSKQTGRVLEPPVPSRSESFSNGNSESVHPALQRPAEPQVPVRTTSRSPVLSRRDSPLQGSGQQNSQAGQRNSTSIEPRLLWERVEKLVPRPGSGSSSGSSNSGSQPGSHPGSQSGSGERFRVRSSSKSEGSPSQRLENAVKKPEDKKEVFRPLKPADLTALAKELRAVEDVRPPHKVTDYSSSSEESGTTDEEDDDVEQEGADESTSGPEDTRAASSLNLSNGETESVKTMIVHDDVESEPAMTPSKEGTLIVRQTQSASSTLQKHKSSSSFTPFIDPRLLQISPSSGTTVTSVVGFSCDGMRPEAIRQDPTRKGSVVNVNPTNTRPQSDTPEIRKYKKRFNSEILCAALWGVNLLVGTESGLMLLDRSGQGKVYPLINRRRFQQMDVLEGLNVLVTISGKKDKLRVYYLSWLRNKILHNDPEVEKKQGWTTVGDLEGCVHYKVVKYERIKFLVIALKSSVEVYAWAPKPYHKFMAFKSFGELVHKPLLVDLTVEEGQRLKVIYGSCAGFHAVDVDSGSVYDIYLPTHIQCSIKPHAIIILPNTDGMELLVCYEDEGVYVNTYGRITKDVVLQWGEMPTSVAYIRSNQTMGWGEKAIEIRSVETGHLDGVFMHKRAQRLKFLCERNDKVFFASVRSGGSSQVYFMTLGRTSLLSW

MDR1 = experiment: Efflux ratio of apparent permeability across basolateral to apical side over apical to basolateral side in MDCK2-MDR1 cells at 2 uM measured after 150 mins by LC-MS/MS analysis; format: ADME, cell-based, Canis lupus familiaris; details: dog, MDCK-MDR1
[2] = target: T2, Alpha-2A adrenergic receptor (Homo sapiens, UniProt P08913); experiment: Antagonist activity at recombinant human Gi/Go-coupled ADRA2A expressed in CHOK1 cells assessed as reduction in UK14304-induced inhibition of forskolin-stimulated cAMP accumulation; format: cell-based; details: cho-k1
T2 sequence (P08913 whole entry): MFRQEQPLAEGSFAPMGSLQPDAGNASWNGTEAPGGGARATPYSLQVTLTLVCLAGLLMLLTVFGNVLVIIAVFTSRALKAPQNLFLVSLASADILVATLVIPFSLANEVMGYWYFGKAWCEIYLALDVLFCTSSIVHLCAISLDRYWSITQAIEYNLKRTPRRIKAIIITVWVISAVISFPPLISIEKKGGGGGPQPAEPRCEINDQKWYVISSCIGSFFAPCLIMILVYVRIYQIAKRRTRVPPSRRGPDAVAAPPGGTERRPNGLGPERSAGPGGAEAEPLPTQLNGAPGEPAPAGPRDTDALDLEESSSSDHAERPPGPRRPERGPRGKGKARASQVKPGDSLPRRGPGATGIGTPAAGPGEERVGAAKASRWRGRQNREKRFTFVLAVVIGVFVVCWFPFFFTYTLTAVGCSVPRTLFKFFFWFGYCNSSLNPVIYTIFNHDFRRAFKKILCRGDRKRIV

[3] = Ratio of drug level in central nervous system to plasma in CD1 mouse at 10 mg/kg, po administered via gavage measured after 8 hrs by LC-MS/MS analysis; format: ADME, organism-based, CNS/Plasma; details: central nervous system and plasma
[4] = Time at which plasma concentration stays above in vitro EC50 for antiparasitic activity against 2F clone of type 1 Toxoplasma gondii RH tachyzoites expressing luciferase infected in HFF in CD1 mouse at 30 mg/kg, po; format: ADME, organism-based; details: in vivo
Toxoplasma gondii [5] = experiment: Antiparasitic activity against type 1 Toxoplasma gondii RH tachyzoites infected in CD1 mouse assessed as reduction in parasite expansion at 30 mg/kg, po administered twice daily via gavage for 7 days by bioluminescence assay; format: functional, organism-based
Toxoplasma gondii [6] = experiment: Antiparasitic activity against type 1 Toxoplasma gondii RH tachyzoites infected in CD1 mouse assessed as reduction in parasite expansion at 15 mg/kg, po administered four times daily via gavage for 7 days by bioluminescence assay; format: functional, organism-based
Toxoplasma gondii [7] = experiment: Antiparasitic activity against type 1 Toxoplasma gondii RH tachyzoites infected in CD1 mouse assessed as reduction in parasite dissemination at 30 mg/kg, po administered twice daily via gavage for 7 days by bioluminescence assay; format: functional, organism-based
Toxoplasma gondii [8] = experiment: Antiparasitic activity against type 1 Toxoplasma gondii RH tachyzoites infected in CD1 mouse assessed as reduction in mouse death at 15 mg/kg, po administered four times daily via gavage for 7 days by bioluminescence assay; format: functional, organism-based
Toxoplasma gondii [9] = experiment: Antiparasitic activity against type 1 Toxoplasma gondii RH tachyzoites infected in CD1 mouse assessed as […] at 15 mg/kg, po administered four times daily via gavage for 7 days followed by lung and brain isolation on 15 days post-infection and co-culture with naive CD1 mouse; format: functional
Toxoplasma gondii [10] = experiment: Protection against reactivation of type 2 Toxoplasma gondii ME49 infection in sulfadiazin-treated Ifngr1-/- CD1 mouse assessed as reduction in parasite infection at 60 mg/kg, po administered twice daily via gavage for 8 days measured up to 30 days by luciferase reporter gene based bioluminescence assay; format: functional, organism-based
Toxoplasma gondii [11] = experiment: Protection against reactivation of type 2 Toxoplasma gondii ME49 infection in sulfadiazin-treated Ifngr1-/- CD1 mouse assessed as reduction in mouse death at 60 mg/kg, po administered twice daily via gavage for 8 days measured up to 30 days; format: functional, organism-based

## N#Cc1ccnc(Oc2nn([C@H]3C[C@H](F)C3)c3ncnc(N)c23)c1
Aldehyde oxidase
  Drug metabolism: < 3.2 µL/min/mg
[1]
  Activity: Non-Toxic

## Nc1ncnc2c1c(Oc1cc(C(F)(F)F)ccn1)nn2C1CC1
MAP4K4
  inhibition at 1 µM: > 50%
MDR1
  efflux ratio at […], 2 µM: 0.64
Aldehyde oxidase
  Drug metabolism: < 3.2 µL/min/mg
[2]
  inhibition (INH): 51%
[3]
  Kp at 8 h: 0.96
[1]
  Activity: Non-Toxic
[4]
  T>EC50: 8 h
Toxoplasma gondii [5]
  Activity: Active
Toxoplasma gondii [6]
  Activity: Active
Toxoplasma gondii [7]
  Activity: Active
Toxoplasma gondii [8]
  Activity: Active
Toxoplasma gondii [9]
  survival at 15 mg/kg: 20%
Toxoplasma gondii [10]
  Activity: inactive
Toxoplasma gondii [11]
  Activity: Active
